According to patent US7799788B2, “Method of treating chronic myelogenous leukemia cells” (University of South Florida, priority 2006, dated 2010):

Tests used:
BaF3/Bcr-AblE255K cells = assay: Apoptosis by Annexin-V staining, BaF3/Bcr-AblE255K cells; settings: 2.0 μM vorinostat, 48 hours
Protocol: After treatment, the percentage of Annexin-V-stained apoptotic cells was determined by flow cytometry.
BaF3/Bcr-Abl, BaF3/Bcr-AblE255K, and BaF3/Bcr-AblT315I cells were treated with the indicated concentrations of vorinostat for 48 hours. After treatment, the percentage of Annexin-V-stained apoptotic cells was determined by flow cytometry.
Following treatment, the percentage of annexin-V-stained apoptotic cells was determined by flow cytometry.
Stably expressing cells were then further selected by removal of IL-3.
Untreated or drug-treated cells were stained with Annexin-V (Pharmingen, San Diego, Calif.) and propidium iodide (PI) and the percentage of apoptotic cells were determined by flow cytometry. […] The percentage of apoptotic cells was determined by flow cytometry.

[1] = system: primary IM-resistant CML cells; assay: Percentage non-viable cells by trypan blue uptake, primary IM-resistant CML-BC cells; assay type: cell-based, human; settings: 48 hours
Protocol: FIG. 6. […] Following this, the percentages of non-viable cells for each drug alone or drug combination were determined by trypan blue uptake in hemocytometer. Values represent the percentage of non-viable cells from each condition as compared to untreated cells.
Primary CML cells. CML cells from the peripheral blood and/or bone marrow of eleven patients who had met the clinical criteria of IM-resistant advanced phase of CML were harvested and purified, as previously described. Informed consents were signed by all patients to allow use of their cells for these experiments, as part of a clinical protocol approved by the University of South Florida Institutional Review Board (IRB).
Cells were stained with trypan blue (Sigma, St. Louis, Mo.).

[2] = system: normal bone marrow progenitor cells (NBMC's); assay: Loss of survival of normal bone marrow progenitor cells; assay type: cell-based
LAMA-84 cells = assay: Apoptosis by Annexin-V staining (flow cytometry), LAMA-84 cells; assay type: cell-based, human; settings: 10 nM dasatinib, 48 hours
Protocol: FIG. 1D. […] Following treatment, the percentages of annexin-V-stained apoptotic cells were measured by flow cytometry. Values represent the mean of three experiments±S.E.M.
Bcr-Abl-expressing, CML LAMA-84 and K562 cells were obtained and maintained in culture, as previously described. […] Following these treatments, cells or cell pellets were washed free of the drug(s) prior to the performance of the studies.

K562 cells = assay: Apoptosis by Annexin-V staining (flow cytometry), K562 cells; assay type: cell-based, human; settings: 10 nM dasatinib, 48 hours
Protocol: Untreated or drug-treated cells were stained with Annexin-V (Pharmingen, San Diego, Calif.) and propidium iodide (PI) and the percentage of apoptotic cells were determined by flow cytometry. […] The percentage of apoptotic cells was determined by flow cytometry. The combination index (CI) for each drug combination was obtained by median dose effect of Chou and Talalay utilizing the combination index equation within the commercially available software Calcusyn (Biosoft, Ferguson, Mo.).

Structure (SMILES) | apoptosis of BaF3/Bcr-AblE255K cells (BaF3/Bcr-AblE255K cells) | loss of cell viability, all samples including #10 and #11 ([1]; 2.0 μM vorinostat alone) | loss of survival of NBMC ([2]; 2.0 μM vorinostat, mean of 2 samples) | loss of cell viability, samples #1 to #9 ([1]; IM-resistant primary CML cells, mutational status not determined) | effect on NBMC ([2]; dasatinib up to 20 nM) | apoptosis of LAMA-84 cells (LAMA-84 cells) | apoptosis of K562 cells (K562 cells)
O=C(CCCCCCC(=O)Nc1ccccc1)NO [vorinostat, suberoylanilide hydroxamic acid] | approximately 40% | induced loss of cell viability in all of the samples | 15.9% | – | – | – | –
Cc1nc(Nc2ncc(C(=O)Nc3c(C)cccc3Cl)s2)cc(N2CCN(CCO)CC2)n1 [dasatinib, N-(2-chloro-6-methylphenyl)-2-[[6-[4-(2-hydroxyethyl)-1-piperazinyl]-2-methyl-4-pyrimidinyl]amino]-5-thiazolecarboxamide] | – | – | – | induced loss of cell viability in a dose dependent manner | no effect | approximately 90% | ~50%
